According to paper PMC12043106, “Insight into antistaphylococcal effect of chlorinated 1-hydroxynaphthalene-2-carboxanilides” (ADMET & DMPK, 2025):
Converted amounts (≈) assume the structure as drawn. “And” between values parts separate entries of the source, which are not always exact repeats. Identical values can stand only once.

Tests used:
S. aureus ATCC 29213 [1] = assay: Antistaphylococcal screening, microtitration broth MIC; assay type: cell-based, Staphylococcus aureus; details: for MIC: Staphylococcus aureus, ATCC29213, S. aureus ATCC 29213, 24 h, 37 °C; for Antistaphylococcal activity in words: susceptible strain and resistant isolates
Procedure: (§1) In vitro antistaphylococcal activity of the synthesized compounds was evaluated against three clinical isolates of methicillin-resistant S. aureus: clinical isolate of animal origin, MRSA 63718 (Department of Infectious Diseases and Microbiology, Faculty of Veterinary Medicine, University of Veterinary Sciences Brno, Czech Republic), carrying the mecA gene; and MRSA SA 630 and MRSA SA 3202 [54] (National Institute of Public Health, Prague, Czech Republic), both of human origin. […] All isolates were tested for the presence of the mecA gene encoding methicillin resistance. […] Vancomycin-susceptible methicillin-susceptible S. aureus (VS-MSSA) ATCC 29213, obtained from the American Type Culture Collection, was used as the reference and quality control strain. The minimum inhibitory concentrations (MICs) were evaluated by the microtitration broth method according to the CLSI [58, 59] with some modifications. The compounds were dissolved in DMSO (Sigma, St. Louis, MO, USA) to get a concentration […] and diluted in a microtitration plate in a medium Cation Adjusted Mueller-Hinton (CaMH, Oxoid, Basingstoke, UK) to reach the final concentration of 256-0.0625 μg/mL. The plate was inoculated by the tested microorganisms. The final concentration of bacterial cells was 10^5 for bacteria. […] A drug-free control and a sterility control were included. The plates were incubated for 24 h at 37 °C. […] The experiments were repeated three times.

[2] = Lipophilicity determination by HPLC (capacity factor k, distribution coefficients DpH); assay type: physicochemical; details: for log k: MeOH 72 % / H2O 28 %, C18; for log D6.5: MeOH 72 % / acetate-buffered saline pH 6.5 28 %; for log D7.4: MeOH 72 % / acetate-buffered saline pH 7.4 28 %
Description: An HPLC system Agilent 1200 equipped with a DAD detector (Agilent, Santa Clara, CA, USA) was used. A chromatographic column Symmetry® C18 5 μm, 4.6×250 mm, part No. WAT054275 (Waters Corp., Milford, MA, USA) was used. The HPLC separation process was monitored and evaluated with EZChrom Elite software ver. 3.3.2 [53] (Agilent). Isocratic elution by a mixture of MeOH p.a. (72 %) and H2O-HPLC Mili-Q grade (28 %) as a mobile phase was used for the determination of capacity factor k. Isocratic elution by a mixture of MeOH p.a. (72 %) and acetate-buffered saline (pH 7.4 and pH 6.5) (28 %) as a mobile phase was used for the determination of distribution coefficients expressed as D7.4 and D6.5. The total flow of the column was 1.0 mL/min, the injection volume was 20 μL, the column temperature was 40 °C, and the sample temperature was 10 °C. The detection wavelength of 210 nm was chosen. A KI methanolic solution was used for the determination of the dead times (tD). Retention times (tR) were measured in minutes. The capacity factors k were calculated according to the formula k = (tR−tD)/tD, where tR is the retention time of the solute, and tD is the dead time obtained using an unretained analyte. The distribution coefficients DpH were calculated according to the formula DpH = (tR−tD)/tD. Each experiment was repeated three times.

MRSA SA 3202 = assay: Antistaphylococcal screening, microtitration broth MIC; assay type: cell-based, methicillin-resistant S. aureus; details: Staphylococcus aureus; MRSA SA 3202, 24 h, 37 °C
Procedure: as §1

MRSA 63718 = assay: as above; assay type: cell-based, methicillin-resistant S. aureus; details: Staphylococcus aureus; MRSA 63718, 24 h, 37 °C
Procedure: as §1

MRSA SA 630 = assay: as above; assay type: cell-based, methicillin-resistant S. aureus; details: Staphylococcus aureus; MRSA SA 630, 24 h, 37 °C
Procedure: as §1

[3] = tested on: Human monocytic leukemia THP-1 cells; design: method as in PMID 24075143; details: tested up to 20 μM, ref [29], read-out: LC50 THP-1; cited from earlier work
in vitro = assay: in vitro
Procedure: Cytotoxicity of the compounds was determined using an LDH assay kit (Roche, Mannheim, Germany) as described previously. Human monocytic leukemia THP-1 cells (European Collection of Cell Cultures, Salisbury, UK) were exposed for 24 h at 37 °C to various compound concentrations ranging from 0.37 to 30 μM in RPMI 1640 medium. For LDH assays, cells were seeded into 96-well plates (5×10^4 cells/well in 100 μL of culture medium) in triplicate in serum-free RPMI 1640 medium and measurements were taken 24 h after the treatment with the compounds. The maximum concentration of DMSO (Sigma) in the assays never exceeded 0.1 %. […] The median lethal dose values, LC50, were deduced through the production of a dose-response curve. All data from three independent experiments were evaluated using GraphPad Prism 5.00 software.

S. aureus ATCC 29213 [4] = assay: MTT assay (bacterial viability / respiratory activity); assay type: cell-based, Staphylococcus aureus; details: S. aureus ATCC 29213, MTT; for S. aureus viability inhibition: at the lowest multiple of MIC with at least 70 % inhibition
Procedure: Compounds were prepared as previously stated and diluted in CaMH broth for S. aureus to achieve the desired final concentrations. S. aureus bacterial suspension in sterile distilled water at 0.5 McFarland was diluted 1:3. Inocula were added to each well by multi-inoculator. Diluted […] in broth free from inhibiting compounds were used as the growth control. All compounds were prepared in duplicate. Plates were incubated at 37 °C for 24 h for S. aureus. After the incubation period, 10 % well volume of MTT (3-(4,5-dimethylthiazol-2-yl)-2,5-diphenyltetrazolium bromide) reagent (Sigma) was mixed into each well and incubated at 37 °C for 1 h for S. aureus. Then 100 μL of 17 % sodium dodecyl sulphate in 40 % dimethylformamide was added to each well. The plates were read at 570 nm. The absorbance readings from the cells grown in the presence of the tested compounds were compared with uninhibited cell growth to determine the relative percent inhibition. The percent inhibition was determined through the MTT assay. The percent viability is calculated through the comparison of a measured value and that of the uninhibited control: Viability = (OD570E/OD570P)×100, where OD570E is the reading from the compound-exposed cells, while OD570P is the reading from the uninhibited cells (positive control). Cytotoxic potential is determined by a percent viability of <70 % [60, 61].
The MTT assay can be used to assess cell growth by measuring respiration.

MIC (S. aureus ATCC 29213 [1])	log k [2]	log D6.5 [2]	log D7.4 [2]	MIC (MRSA SA 3202)	MIC (MRSA 63718)	MIC (MRSA SA 630)	Concentration: lowest multiple of MIC with at least 70 % inhibition of viability (S. aureus ATCC 29213 [4])	SMILES	CC50 [3]	CC50 at 24 h (in vitro)	Antistaphylococcal activity in words (S. aureus ATCC 29213 [1])	S. aureus viability inhibition (S. aureus ATCC 29213 [4])
770 µM (≈ 256 µg/mL)	0.7387	0.5168	0.4680	770 µM (≈ 256 µg/mL)	770 µM (≈ 256 µg/mL)	770 µM (≈ 256 µg/mL)	–	O=C(Nc1ccc(Cl)cc1Cl)c1ccc2ccccc2c1O [Compound 6]	–	–	–	–
> 859 µM	0.8880	0.7640	0.7501	107 µM (≈ 31.9 µg/mL)	> 859 µM	429 µM (≈ 128 µg/mL)	–	O=C(Nc1ccc(Cl)cc1)c1ccc2ccccc2c1O [Compound 4]	> 20 µM	–	–	–
770 µM (≈ 256 µg/mL)	0.6717	0.3949	0.3938	770 µM (≈ 256 µg/mL)	770 µM (≈ 256 µg/mL)	770 µM (≈ 256 µg/mL)	–	O=C(Nc1cc(Cl)ccc1Cl)c1ccc2ccccc2c1O [Compound 7]	–	–	–	–
–	–	–	–	–	–	–	–	CC[C@@]1(O)C(=O)OCc2c1cc1n(c2=O)Cc2cc3ccccc3nc2-1 [CMP, camptothecin, reference compound]	–	0.16 ± 0.07 µM	–	–
> 972 µM	0.6084	0.5139	0.5487	121 µM (≈ 31.9 µg/mL)	> 972 µM	243 µM (≈ 64 µg/mL)	–	O=C(Nc1ccccc1)c1ccc2ccccc2c1O [Compound 1]	> 20 µM	–	–	–
770 µM (≈ 256 µg/mL)	0.6838	0.4371	0.3870	770 µM (≈ 256 µg/mL)	770 µM (≈ 256 µg/mL)	770 µM (≈ 256 µg/mL)	–	O=C(Nc1cccc(Cl)c1Cl)c1ccc2ccccc2c1O [Compound 5]	–	–	–	–
48.2 µM (≈ 16 µg/mL)	0.5729	0.4516	0.4594	48.2 µM (≈ 16 µg/mL)	48.2 µM (≈ 16 µg/mL)	48.2 µM (≈ 16 µg/mL)	–	O=C(Nc1c(Cl)cccc1Cl)c1ccc2ccccc2c1O [Compound 8, N-(2,6-dichlorophenyl)-1-hydroxynaphthalene-2-carboxamide]	–	> 30 µM	Partial activity	–
770 µM (≈ 256 µg/mL)	0.9304	0.9048	0.8909	385 µM (≈ 128 µg/mL)	770 µM (≈ 256 µg/mL)	96.3 µM (≈ 32 µg/mL)	–	O=C(Nc1ccc(Cl)c(Cl)c1)c1ccc2ccccc2c1O [Compound 9]	–	–	–	–
> 859 µM	0.8556	0.7362	0.7227	107 µM (≈ 31.9 µg/mL)	> 859 µM	429 µM (≈ 128 µg/mL)	–	O=C(Nc1cccc(Cl)c1)c1ccc2ccccc2c1O [Compound 3]	> 20 µM	–	–	–
5.72 µM (≈ 2 µg/mL)	–	–	–	45.8 µM (≈ 16 µg/mL)	45.8 µM (≈ 16 µg/mL)	45.8 µM (≈ 16 µg/mL)	8× MIC	CC1(C)S[C@@H]2[C@H](NC(=O)[C@H](N)c3ccccc3)C(=O)N2[C@H]1C(=O)O [APC, ampicillin, reference compound]	–	0.8 ± 0.1 µM	–	90.0%
698 µM (≈ 256 µg/mL)	1.2387	1.0960	1.0561	698 µM (≈ 256 µg/mL)	698 µM (≈ 256 µg/mL)	698 µM (≈ 256 µg/mL)	–	O=C(Nc1cc(Cl)c(Cl)c(Cl)c1)c1ccc2ccccc2c1O [Compound 13, N-(3,4,5-trichlorophenyl)-1-hydroxynaphthalene-2--carboxamide]	–	–	–	–
698 µM (≈ 256 µg/mL)	0.8398	0.7254	0.6825	698 µM (≈ 256 µg/mL)	698 µM (≈ 256 µg/mL)	698 µM (≈ 256 µg/mL)	–	O=C(Nc1c(Cl)cc(Cl)cc1Cl)c1ccc2ccccc2c1O [Compound 12]	–	–	–	–
698 µM (≈ 256 µg/mL)	0.6894	0.5314	0.4864	698 µM (≈ 256 µg/mL)	698 µM (≈ 256 µg/mL)	698 µM (≈ 256 µg/mL)	–	O=C(Nc1cc(Cl)c(Cl)cc1Cl)c1ccc2ccccc2c1O [Compound 11]	–	–	–	–
0.37 µM (≈ 0.123 µg/mL)	0.9704	0.9531	0.9306	0.37 µM (≈ 0.123 µg/mL)	0.37 µM (≈ 0.123 µg/mL)	0.37 µM (≈ 0.123 µg/mL)	16 × MIC	O=C(Nc1cc(Cl)cc(Cl)c1)c1ccc2ccccc2c1O [Compound 10, N-(3,5-dichlorophenyl)-1-hydroxynaphthalene-2-carboxamide]	–	> 30 µM	significant antistaphylococcal activity	96% and 96.5%
> 859 µM	0.6900	0.5828	0.5836	> 859 µM	> 859 µM	> 859 µM	–	O=C(Nc1ccccc1Cl)c1ccc2ccccc2c1O [Compound 2]	–	–	–	–
